Measurements as given in article PMC6359343 (Molecules, 2019).
Entries after “also recorded” stand apart in the source; their conditions may differ. Where two headings read alike, the source gives them in different places.

What was measured:
[1] = biological target: Neuraminidase from Clostridium perfringens (C. welchii) (EC 3.2.1.18); type: biochemical; details: for IC50: pH 5.0, 37 °C, read-out: IC50, bacterial neuraminidase
[2] = tested on: Neuraminidase from Clostridium perfringens (bacterial neuraminidase); type: binding
[3] = biological target: Neuraminidase from Clostridium perfringens (bacterial neuraminidase); type: biochemical; details: for Ki: read-out: Ki (inhibition constant); for Kik/Kiv: Yang's method
[4] = concentration that caused 50% enzyme activity loss, three repeats
[5] = Lineweaver–Burk and Dixon plots

| Compound | IC50 [1, 4] | KA (binding constant) ([2]; fluorescence quenching, pH 5.0) | Ki ([3]; Dixon plots) | Kinetic Mode [3, 5] | KSV (Stern–Volmer constant) ([2]; fluorescence quenching, pH 5.0) | further results |
| --- | --- | --- | --- | --- | --- | --- |
| O=c1cc(-c2ccc(O)cc2)oc2cc(O)cc(O)c12 [Apigenin, apigenin, reference compound] | 108 ± 1.8 µM | 514200 L/mol | – | – | – | – |
| CC(C)=CCc1cc(-c2cc(=O)c3c(O)cc(O)c(CC=C(C)C)c3o2)cc(O)c1O [Compound 1, epimedokoreanin B] | 0.17 ± 0.02 µM | 966600 L/mol | 0.15 µM | Noncompetitive | 411040 L/mol | Kinetic Mode ([3]; Lineweaver–Burk and Dixon plots, listed as compound 1): noncompetitive inhibition; also recorded: noncompetitive behavior; Kik/Kiv ([3]; [I] 0.12 µM): 16.0415; Kik/Kiv ([3]; [I] 0.24 µM): 6.6846; Kik/Kiv ([3]; [I] 0.48 µM): 7.7610; reversibility of inhibition ([3]; initial velocity versus enzyme concentration plots): reversible inhibitor; times more effective than luteolin (mother skeleton) ([1]; ratio of IC50 values): 500 times |
| CC(C)=CCc1c(O)cc(O)c2c1OC(c1ccc(O)cc1)C(O)C2=O (stereo not shown) [Compound 2, 8-(γ,γ-dimethylallyl)-5,7,4′-trihydroxydihydroflavonol] | 0.68 ± 0.03 µM | 792300 L/mol | 0.73 µM | Noncompetitive | 236360 L/mol | times more potent in comparison with dihydrokaempferol ([1]; ratio of IC50 values): 700 times |
| CC(C)=CCc1cc(-c2cc(=O)c3c(O)cc(O)c(CC=C(C)C)c3o2)ccc1O [Compound 3, 5,7,4′-trihydroxy-8,3′-diprenyl flavone] | 12.6 ± 0.2 µM | 760400 L/mol | 12.2 µM | Noncompetitive | 134420 L/mol | – |
| COc1ccc(-c2oc3c(CC=C(C)C)c(O[C@@H]4O[C@H](CO)[C@@H](O)[C@H](O)[C@H]4O)cc(O)c3c(=O)c2O[C@@H]2O[C@@H](C)[C@H](O)[C@@H](O)[C@H]2O)cc1 [Compound 5, icariin] | 57.8 ± 1.1 µM | 584400 L/mol | 36.8 µM | mixed type inhibitor; also recorded: mixed-type behavior; also recorded: Mixed type I | 60400 L/mol | Kik/Kiv ([3]; [I] 35.0 µM): 3.6688; Kik/Kiv ([3]; [I] 70.0 µM): 2.3384; Kik/Kiv ([3]; [I] 140.0 µM): 2.0207 |
| COc1ccc(-c2oc3c(CC=C(C)C)c(O)cc(O)c3c(=O)c2O[C@@H]2O[C@@H](C)[C@H](O)[C@@H](O)[C@H]2O[C@@H]2OC[C@@H](O)[C@H](O)[C@H]2O)cc1 [Compound 6, sagittatoside B] | 106 ± 3.2 µM | 505700 L/mol | 103 µM | Noncompetitive | 56080 L/mol | – |
| COc1ccc(-c2oc3c(c(O)cc4oc(C(C)(C)OC)cc43)c(=O)c2OC2OC(C)C(O)C(O)C2O)cc1 [Compound 7, 5-hydroxy-2-(4-methoxyphenyl)-8-(2-methoxypropan-2-yl)-3-(((2S,3R,4R,5R,6S)-3,4,5-trihydroxy-6-methyltetra-hydro-2H-pyran-2-yl)oxy)-4H-furo[2-3-h]chromen-4-one] | 2.9 ± 0.7 µM | 785100 L/mol | 2.73 µM | Noncompetitive | 216560 L/mol | times more effective compared with compound 8 ([1]; methoxy group (7) versus hydroxyl group (8)): 5 times |
| COc1ccc(-c2oc3c(c(O)cc4oc(C(C)(C)O)cc43)c(=O)c2O[C@@H]2O[C@@H](C)[C@H](O)[C@@H](O)[C@H]2O)cc1 [Compound 8, 5-hydroxy-8-(2-hydroxypropan-2-yl)-2-(4-methoxyphenyl)-3-(((2S,3R,4R,5R,6S)-3,4,5-trihydroxy-6-methyl-tetrahydro-2H-pyran-2-yl)oxy)-4H-furo[2,3-h]chromen-4-one] | 16.7 ± 0.9 µM | 741600 L/mol | 16.4 µM | Noncompetitive | 111200 L/mol | – |
| O=C1c2c(O)cc(O)cc2O[C@H](c2ccc(O)cc2)[C@H]1O [Dihydrokaempferol, dihydrokaempferol, reference compound] | 500.4 ± 3.8 µM | 299800 L/mol | – | – | 24790 L/mol | fluorescence quenching (FQ) effect [2]: insignificant |
| O=c1cc(-c2ccc(O)c(O)c2)oc2cc(O)cc(O)c12 [Luteolin, luteolin, reference compound] | 85.6 ± 2.1 µM | 557800 L/mol | – | – | 56140 L/mol | – |
| O=c1c(O)c(-c2ccc(O)c(O)c2)oc2cc(O)cc(O)c12 [Quercetin, reference compound] | 20.2 ± 0.8 µM | – | – | – | – | – |
| icariside II [Compound 4] | – | – | – | – | – | Kinetic Mode [3]: Noncompetitive (21.1 ± 0.8); Ki [3]: 21.1 µM; IC50 [1]: 20 ± 0.5 µM; KA (binding constant) ([2]; pH 5): 733500 L/mol; KSV (Stern–Volmer constant) ([2]; pH 5): 95690 L/mol |
